# Where two headings read alike, the source gives them in different places. Numbered stars: 1 amine (or outer) side, 2 acyl side, 3 side chain; on linkers, the order of the positions; unused ones are H or OH. Bridge positions count the residues as written; N and C are the ends. Side chains are listed from the residue outwards. Peptide text beside a SMILES is read from it. * marks the point of attachment. C20 diacid = O=C(O)CCCCCCCCCCCCCCCCCCC(=O)*; γGlu = O=C(O)[C@H](CCC(=O)[*:2])N[*:1]; AEEA = NCCOCCOCC(=O)O
# Assays:
# [1] = target: T1, human amylin receptor (amylin 3(a) receptor: human calcitonin receptor + RAMP-3) (Homo sapiens, UniProt O60896+P30988); assay: Assay (II)a functional assay, human amylin receptor (CRE luciferase, BHK cells); format: cell-based; settings: for EC50: read-out: hAmylin-R funct. EC50
# T1 construct: expressed in transfected cells
# T1 sequence (P30988 25-474): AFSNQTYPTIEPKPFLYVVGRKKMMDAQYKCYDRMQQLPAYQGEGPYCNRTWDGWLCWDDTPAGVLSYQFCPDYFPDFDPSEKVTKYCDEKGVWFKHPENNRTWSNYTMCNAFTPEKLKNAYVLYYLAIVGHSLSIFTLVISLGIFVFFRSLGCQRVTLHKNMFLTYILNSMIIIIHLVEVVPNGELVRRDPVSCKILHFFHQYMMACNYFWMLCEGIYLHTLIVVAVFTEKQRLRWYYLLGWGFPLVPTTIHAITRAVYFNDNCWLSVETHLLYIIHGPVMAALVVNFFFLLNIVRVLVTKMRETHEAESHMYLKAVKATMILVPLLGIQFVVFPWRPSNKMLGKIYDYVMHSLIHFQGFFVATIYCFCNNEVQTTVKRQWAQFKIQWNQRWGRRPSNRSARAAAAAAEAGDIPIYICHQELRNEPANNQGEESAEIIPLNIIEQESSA
# T1 sequence (O60896 24-148 partner): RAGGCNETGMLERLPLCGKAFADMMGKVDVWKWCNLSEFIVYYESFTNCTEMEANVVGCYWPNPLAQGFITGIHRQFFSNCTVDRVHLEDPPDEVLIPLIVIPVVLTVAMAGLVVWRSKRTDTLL
# [2] = target: T2, human calcitonin receptor (Homo sapiens, UniProt P30988); assay: Assay (VII) binding to the human calcitonin receptor (SPA, 125I-Calcitonin); settings: read-out: hCTR bind IC50;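 further: cell membranes coupled to SPA beads, competitive displacement read by scintillation counting, IC50 derived from a one-site competition fit as a measure of receptor affinity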
# T2 construct: expressed in transfected cells
# T2 sequence (P30988 25-474): T1 sequence (P30988 25-474)
# [3] = target: T2, human calcitonin receptor; assay: Assay (II)a functional assay, human calcitonin receptor (CRE luciferase, BHK cells);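 further: luminescence from a CRE-driven luciferase reporter, read by single photon counting after cells were exposed to test samples for 3 h at 37 °C under 5% CO2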; format: cell-based; settings: read-out: hCTR funct. EC50
# [4] = target: T3, human amylin receptor (Homo sapiens, UniProt O60896+P30988); assay: Assay (V) binding to the human amylin receptor (SPA, 125I-rat amylin); settings: for IC50: human amylin receptor membranes, SPA, read-out: hAmylin-R bind IC50; for Ratio hCT/hAmylin binding: human binding ratio, included for comparison
# T3 construct: expressed in transfected cells
# T3 sequence (P30988 25-474): T1 sequence (P30988 25-474)
# T3 sequence (O60896 24-148 partner): T1 sequence (O60896 24-148 partner)
# How it was run: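 SPA competition binding on membranes from Amylin 3(a)/CRE-luc cells, 35 ng/μL membranes with 0.05 mg/well beads. Buffer 50 mM Hepes pH 7.4, 1 mM CaCl2, 5 mM MgCl2, 0.1% OA, 0.02% Tween20. IC50 from one-site competition fit as affinity measure.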
# [5] = Table 6, human functional selectivity (hCTR EC50 / hAmylin-R EC50)
# [6] = Table 6a, human functional selectivity (hCTR EC50 / hAmylin-R EC50), at least 5
# [7] = functional assay, human amylin receptor
"Ratio hCT/hAmylin funct. [1, 5]","Ratio hCT/hAmylin funct. [1, 6]","Ratio hCT/hAmylin funct. ([1]; Table 6j, hCTR funct. EC50 / hAmylin-R funct. EC50)","EC50 ([1]; Table 6j, human amylin receptor functional) [pM]","Ratio hCT/hAmylin funct. ([1]; Table 6k, hCTR funct. EC50 / hAmylin-R funct. EC50)",IC50 [2] [pM],EC50 [3] [pM],IC50 [4] [pM],"Ratio hCT/hAmylin funct. ([1]; Table 6i, hCTR funct. EC50 / hAmylin-R funct. EC50)","EC50 [1, 7] [pM]",Ratio hCT/hAmylin funct. ([1]; hCTR funct. EC50 divided by hAmylin-R funct. EC50),Ratio hCT/hAmylin binding [4],Compound
5.0,5.0,5.0,102,5.0,2090,506,49,,,,,CC[C@H](C)[C@H](NC(=O)[C@H](C)NC(=O)CNC(=O)[C@H](Cc1ccccc1)NC(=O)[C@H](CC(N)=O)NC(=O)[C@@H]1CCCN1C(=O)[C@H](CO)NC(=O)[C@H](CO)NC(=O)[C@H](Cc1c[nH]cn1)NC(=O)[C@H](CCCNC(=N)N)NC(=O)[C@H](CC(C)C)NC(=O)[C@H](Cc1ccccc1)NC(=O)[C@H](CC(N)=O)NC(=O)[C@H](C)NC(=O)[C@H](CC(C)C)NC(=O)[C@H](CCCNC(=N)N)NC(=O)[C@H](CCC(N)=O)NC(=O)[C@@H](NC(=O)[C@H](C)NC(=O)[C@@H]1CSSC[C@H](NC(=O)[C@@H](N)CCCCNC(=O)COCCOCCNC(=O)CC[C@H](NC(=O)CCCCCCCCCCCCCCCCCCC(=O)O)C(=O)O)C(=O)N[C@@H](CC(N)=O)C(=O)N[C@@H]([C@@H](C)O)C(=O)N[C@@H](C)C(=O)N[C@@H]([C@@H](C)O)C(=O)N1)[C@@H](C)O)C(=O)N1CCC[C@H]1C(=O)N[C@@H](CO)C(=O)N1CCC[C@H]1C(=O)N[C@H](C(=O)N[C@@H](CC(N)=O)C(=O)N[C@H](C(=O)NCC(=O)N1CCC[C@H]1C(=O)N[C@@H](CC(N)=O)C(=O)N[C@H](C(=O)N[C@@H](Cc1ccc(O)cc1)C(N)=O)[C@@H](C)O)C(C)C)[C@@H](C)O [Example 56] (H-K([AEEA-γGlu-C20 diacid])CNTATCATQRLANFLRHSSPNFGAIPSPTNVGPNTY-NH2; disulfide 2-7)
5.8,5.8,,,,1560,1280,69,5.8,222,5.8,,CC[C@H](C)[C@H](NC(=O)[C@H](C)NC(=O)CNC(=O)[C@H](Cc1ccccc1)NC(=O)[C@H](CC(N)=O)NC(=O)[C@@H]1CCCN1C(=O)[C@H](CO)NC(=O)[C@H](CO)NC(=O)[C@H](Cc1c[nH]cn1)NC(=O)[C@H](CCCNC(=N)N)NC(=O)[C@H](CC(C)C)NC(=O)[C@H](Cc1ccccc1)NC(=O)[C@H](CCC(=O)O)NC(=O)[C@H](C)NC(=O)[C@H](CC(C)C)NC(=O)[C@H](CCCNC(=N)N)NC(=O)[C@H](CCC(N)=O)NC(=O)[C@@H](NC(=O)[C@H](C)NC(=O)[C@@H]1CSSC[C@H](NC(=O)[C@@H](N)CCCCNC(=O)CC[C@H](NC(=O)CC[C@H](NC(=O)CCCCCCCCCCCCCCCCCCC(=O)O)C(=O)O)C(=O)O)C(=O)N[C@@H](CC(N)=O)C(=O)N[C@@H]([C@@H](C)O)C(=O)N[C@@H](C)C(=O)N[C@@H]([C@@H](C)O)C(=O)N1)[C@@H](C)O)C(=O)N[C@@H](CC(C)C)C(=O)N[C@@H](CO)C(=O)N[C@@H](CO)C(=O)N[C@H](C(=O)N1CCC[C@H]1C(=O)N[C@H](C(=O)NCC(=O)N1CCC[C@H]1C(=O)N[C@@H](CCC(=O)O)C(=O)N[C@H](C(=O)N[C@@H](Cc1ccc(O)cc1)C(N)=O)[C@@H](C)O)C(C)C)[C@@H](C)O [Example 121] (H-K([γGlu-γGlu-C20 diacid])CNTATCATQRLAEFLRHSSPNFGAILSSTPVGPETY-NH2; disulfide 2-7)
1.6,,,,,432,238,196,,146,,2.2,CC[C@H](C)[C@H](NC(=O)[C@H](C)NC(=O)CNC(=O)[C@H](Cc1ccccc1)NC(=O)[C@H](CC(N)=O)NC(=O)[C@@H]1CCCN1C(=O)[C@H](CO)NC(=O)[C@H](CO)NC(=O)[C@H](Cc1c[nH]cn1)NC(=O)[C@H](CCCNC(=N)N)NC(=O)[C@H](CC(C)C)NC(=O)[C@H](Cc1ccccc1)NC(=O)[C@H](CCC(=O)O)NC(=O)[C@H](C)NC(=O)[C@H](CC(C)C)NC(=O)[C@H](CCCNC(=N)N)NC(=O)[C@H](CCC(N)=O)NC(=O)[C@@H](NC(=O)[C@H](C)NC(=O)[C@@H]1CSSC[C@H](NC(=O)[C@H](CCCCN)NC(=O)CC[C@H](NC(=O)CC[C@H](NC(=O)CCCCCCCCCCCCCCCCCCC(=O)O)C(=O)O)C(=O)O)C(=O)N[C@@H](CC(N)=O)C(=O)N[C@@H]([C@@H](C)O)C(=O)N[C@@H](C)C(=O)N[C@@H]([C@@H](C)O)C(=O)N1)[C@@H](C)O)C(=O)N1CCC[C@H]1C(=O)N[C@@H](CO)C(=O)N[C@@H](CO)C(=O)N[C@H](C(=O)N[C@@H](CC(N)=O)C(=O)N[C@H](C(=O)NCC(=O)N[C@@H](CO)C(=O)N[C@@H](CC(N)=O)C(=O)N[C@H](C(=O)N1CCC[C@H]1C(N)=O)[C@@H](C)O)C(C)C)[C@@H](C)O [Example 14] ({C20 diacid-γGlu-γGlu}-KCNTATCATQRLAEFLRHSSPNFGAIPSSTNVGSNTP-NH2; disulfide 2-7)
0.8,,,,,226,102,533,,132,,0.4,CC[C@H](C)[C@H](NC(=O)[C@H](C)NC(=O)CNC(=O)[C@H](Cc1ccccc1)NC(=O)[C@H](CC(N)=O)NC(=O)[C@@H]1CCCN1C(=O)[C@H](CO)NC(=O)[C@H](CO)NC(=O)[C@H](Cc1c[nH]cn1)NC(=O)[C@H](CCCNC(=N)N)NC(=O)[C@H](CC(C)C)NC(=O)[C@H](Cc1ccccc1)NC(=O)[C@H](CCC(=O)O)NC(=O)[C@H](C)NC(=O)[C@H](CC(C)C)NC(=O)[C@H](CCCNC(=N)N)NC(=O)[C@H](CCC(N)=O)NC(=O)[C@@H](NC(=O)[C@H](C)NC(=O)[C@@H]1CSSC[C@H](NC(=O)[C@@H](N)CCCCNC(=O)CC[C@H](NC(=O)CC[C@H](NC(=O)CCCCCCCCCCCCCCCCCCC(=O)O)C(=O)O)C(=O)O)C(=O)N[C@@H](CC(N)=O)C(=O)N[C@@H]([C@@H](C)O)C(=O)N[C@@H](C)C(=O)N[C@@H]([C@@H](C)O)C(=O)N1)[C@@H](C)O)C(=O)N1CCC[C@H]1C(=O)N[C@@H](CO)C(=O)N[C@@H](CO)C(=O)N[C@H](C(=O)N[C@@H](CC(N)=O)C(=O)N[C@H](C(=O)NCC(=O)N1CCC[C@H]1C(=O)N[C@@H](CCC(=O)O)C(=O)N[C@H](C(=O)N1CCC[C@H]1C(N)=O)[C@@H](C)O)C(C)C)[C@@H](C)O [Example 125] (H-K([γGlu-γGlu-C20 diacid])CNTATCATQRLAEFLRHSSPNFGAIPSSTNVGPETP-NH2; disulfide 2-7)
,,,,,5660,932,88,,54,,,CC[C@H](C)[C@H](NC(=O)[C@H](C)NC(=O)CNC(=O)[C@H](Cc1ccccc1)NC(=O)[C@H](CC(N)=O)NC(=O)[C@@H]1CCCN1C(=O)[C@H](CO)NC(=O)[C@H](CO)NC(=O)[C@H](Cc1c[nH]cn1)NC(=O)[C@H](CCCNC(=N)N)NC(=O)[C@H](CC(C)C)NC(=O)[C@H](Cc1ccccc1)NC(=O)[C@H](Cc1c[nH]cn1)NC(=O)[C@H](C)NC(=O)[C@H](CC(C)C)NC(=O)[C@H](CCCNC(=N)N)NC(=O)[C@H](CCC(N)=O)NC(=O)[C@@H](NC(=O)[C@H](C)NC(=O)[C@@H]1CSSC[C@H](NC(=O)[C@@H](N)CCCCNC(=O)COCCOCCNC(=O)CC[C@H](NC(=O)CCCCCCCCCCCCCCCCCCC(=O)O)C(=O)O)C(=O)N[C@@H](CC(N)=O)C(=O)N[C@@H]([C@@H](C)O)C(=O)N[C@@H](C)C(=O)N[C@@H]([C@@H](C)O)C(=O)N1)[C@@H](C)O)C(=O)N1CCC[C@H]1C(=O)N[C@@H](CO)C(=O)N[C@@H](CO)C(=O)N[C@H](C(=O)N[C@@H](CC(N)=O)C(=O)N[C@H](C(=O)NCC(=O)N1CCC[C@H]1C(=O)N[C@@H](CC(N)=O)C(=O)N[C@H](C(=O)N[C@@H](Cc1ccc(O)cc1)C(N)=O)[C@@H](C)O)C(C)C)[C@@H](C)O [Example 68] (H-K([AEEA-γGlu-C20 diacid])CNTATCATQRLAHFLRHSSPNFGAIPSSTNVGPNTY-NH2; disulfide 2-7)
